Target: SARS-CoV-2 M^pro (Severe acute respiratory syndrome coronavirus 2, UniProt P0DTD1)
Assay: In vitro FRET enzymatic assay (screening at 1 µM and SAR IC50)
Type: biochemical
Settings: for inhibition at 1 µM: read-out: M^pro inhibition % (comp. conc. 1 µM)

SMILES | IC50 (IC50 ± SEM) | inhibition at 1 µM | M^pro inhibition % (comp. conc. 1 µM) | IC50 (IC50 M^pro)
N#Cc1cc(C(=O)N[C@H](CC2CCC2)C(=O)N[C@H](CC(=O)N[C@H](Cc2ccncc2)C(=O)NCc2ccccn2)Cc2c[nH]c3ccccc23)ccn1 [MP14] | 45 ± 9 nM | 98.2% |  | 
N#Cc1cc(C(=O)N[C@H](CC2CCC2)C(=O)N[C@H](CC(=O)N[C@H](Cc2ccc(Cl)cc2)C(=O)O)Cc2c[nH]c3ccccc23)ccn1 [MP4] |  | ~30% |  | 
N#Cc1cc(C(=O)N[C@H](CC2CCC2)C(=O)N[C@H](CC(=O)N[C@H](Cc2ccccc2)C(=O)O)Cc2c[nH]c3ccccc23)ccn1 [MP3] |  | ~30% | 30.4% | 
N#Cc1cc(C(=O)N[C@H](CC2CCC2)C(=O)N[C@H](CC(=O)N[C@H](Cc2ccncc2)C(=O)NCc2ccccc2)Cc2c[nH]c3ccccc23)ccn1 [MP12] |  | 96.5% |  | 
N#Cc1cc(C(=O)N[C@H](CC2CCC2)C(=O)N[C@H](CC(=O)N[C@H](Cc2ccncc2)C(=O)NCCc2c[nH]c3ccccc23)Cc2c[nH]c3ccccc23)ccn1 [MP16] | 33 ± 3 nM | 94.7% |  | 47 nM
N#Cc1cc(C(=O)N[C@H](CC2CCC2)C(=O)N[C@H](CC(=O)N[C@H](Cc2ccncc2)C(=O)NCCN2CCOCC2)Cc2c[nH]c3ccccc23)ccn1 [MP13] | 47 ± 6 nM | 94.2% |  | 
N#Cc1cc(C(=O)N[C@H](CC2CCC2)C(=O)NCCC(=O)N[C@H](Cc2ccncc2)C(=O)O)ccn1 [MP5] |  | ~8% | 8.1% | 
N#Cc1cccc(C(=O)N[C@H](CC2CCC2)C(=O)N[C@H](CC(=O)N[C@H](Cc2ccncc2)C(=O)O)Cc2c[nH]c3ccccc23)c1 [MP6] |  | ~18% | 17.8% | 
N#Cc1cc(C(=O)N[C@H](CC2CCC2)C(=O)N[C@H](CC(=O)N[C@H](Cc2ccncc2)C(=O)NCc2cccc(Cl)c2)Cc2c[nH]c3ccccc23)ccn1 [MP15] |  | 66.8% |  | 
N#Cc1cc(C(=O)N[C@H](CC2CCC2)C(=O)N[C@H](CC(=O)O)Cc2c[nH]c3ccccc23)ccn1 [MP2] |  | ~2% | 2.2% | 
N#Cc1cc(C(=O)N[C@H](CC2CCC2)C(=O)N[C@H](CC(=O)N[C@H](Cc2ccncc2)C(=O)O)Cc2c[nH]c3ccccc23)ccn1 [MP1] |  | 97% |  | 
CCCC[C@@H](NC(=O)c1ccnc(C#N)c1)C(=O)N[C@H](CC(=O)N[C@H](Cc1ccncc1)C(=O)O)Cc1c[nH]c2ccccc12 [MP9] |  | 86.6% |  | 
O=Cc1cccc(C(=O)N[C@H](CC2CCC2)C(=O)N[C@H](CC(=O)N[C@H](Cc2ccncc2)C(=O)O)Cc2c[nH]c3ccccc23)c1 [MP7] |  | 100% |  | 
N#Cc1cc(C(=O)N[C@H](Cc2ccc(Cl)cc2)C(=O)N[C@H](CC(=O)N[C@H](Cc2ccncc2)C(=O)O)Cc2c[nH]c3ccccc23)ccn1 [MP10] | 71 ± 7 nM | 95.7% |  | 
N#Cc1cc(C(=O)N[C@H](Cc2ccc(Cl)c(Cl)c2)C(=O)N[C@H](CC(=O)N[C@H](Cc2ccncc2)C(=O)O)Cc2c[nH]c3ccccc23)ccn1 [MP11] | 69 ± 4 nM | 90.7% |  | 
CC(=O)c1cccc(C(=O)N[C@H](CC2CCC2)C(=O)N[C@H](CC(=O)N[C@H](Cc2ccncc2)C(=O)O)Cc2c[nH]c3ccccc23)c1 [MP8] |  | ~18% | 18.2% | 

Reference: article PMC11459923, “Identification of novel and potent inhibitors of SARS-CoV-2 main protease from DNA-encoded chemical libraries” (Antimicrobial Agents and Chemotherapy, 2024)
